Patent US6087337A, “Method for treating benign and malignant proliferative skin disease” (Biomeasure Inc., priority 1993, dated 2000)

Columns and labels:
B16-F10 melanoma = test: Response of intradermally implanted B16-F10 melanoma xenografts to topically applied Somatuline BIM-23014C; assay type: in vivo, BALB/c derived athymic nude female mice
Experimental: Response of Intradermally Implanted B16-F10 Melanoma Xenografts to Topically Applied Somatuline BIM-23014C
Eighteen BALB/c derived athymic nude female mice were implanted intradermally (ID), on the right flank, with a 0.02 to 0.05 ml suspension of in vitro propagated B16-F10 melanoma cells suspended in a normal saline solution. Implantation was done with a 23 gauge needle attached to a 1.0 ml syringe on day 0. Such an intradermal implant of the murine B16-F10 melanoma is essentially orthotopic and gives rise to an extremely fast growing tumor. By day 2, flat melanotic growths were evident at the injection site. The lesions resembled in situ melanomas.
Somatuline (D-β-Nal-Cys-Tyr-D-Trp-Lys-Val-Cys-Thr-NH2, available from Biomeasure, Inc. under the product code BIM-23014C) was added to a 50% DMSO in saline solution at a concentration of 10 mgs/ml. After wiping the skin with a gauze pad wet with isopropyl alcohol, a drop (approximately 0.05 ml) of the Somatuline solution was applied to the skin surface of the mice over the melanotic lesion. The solution was rubbed into the skin for approximately 1 minute with a latex gloved (Baxter Scientific Products/Flexam) finger. Well over half of the drop of Somatuline was not absorbed and was lost after the rubbing-in procedure. The controls were treated identically with 50% DMSO in saline solution without any somatostatin analog. Topical treatments were applied twice daily for 11 days beginning on day 3 post implantation.

[1] = test system: insulin, glucagon, and growth hormone release; conditions: times more potent than naturally occurring somatostatin; cited from earlier work

Molecule | Tumor Wt. (mgs) Day 12 (B16-F10 melanoma; 0.05 ml topical of DMSO/Saline vehicle containing 10 mg/ml, b.i.d., q.d. 3-14, intradermal B16-F10 implant in nude mice, day 12) | growth of the melanotic lesion (tumor growth curves FIG. 1, photographs FIG. 2, days 4, 7, 11) (B16-F10 melanoma; topical Somatuline solution 10 mgs/ml in 50% DMSO in saline, twice daily, compared to control mice) | % T/C (B16-F10 melanoma; tumor weight day 12, treated vs DMSO/Saline vehicle control, 0.05 ml topical, 10 mg/ml, b.i.d., q.d. 3-14) | potency relative to naturally occurring somatostatin for the inhibition of insulin, glucagon, and growth hormone release [1]
CC(C)[C@@H]1NC(=O)[C@H](CCCCN)NC(=O)[C@@H](Cc2c[nH]c3ccccc23)NC(=O)[C@H](Cc2ccc(O)cc2)NC(=O)[C@@H](NC(=O)[C@H](N)Cc2ccc3ccccc3c2)CSSC[C@@H](C(=O)N[C@H](C(N)=O)[C@@H](C)O)NC1=O [BIM-23014C, D-β-Nal-Cys-Tyr-D-Trp-Lys-Val-Cys-Thr-NH2] | 185.9 ± 47 mgs | clear growth inhibition | 35% | 
cyclo(N-Me-Ala-Tyr-D-Trp-Lys-Val-Phe) |  |  |  | 50-100 times
